How the values were obtained:
littleseed canarygrass = assay: Test F pre-/postemergence herbicide test; assay type: in vivo, Phalaris minor
Procedure, shortened: (§1)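 Seeds were planted and sprayed preemergence with test chemicals in a non-phytotoxic solvent mixture containing surfactant; in parallel, plants 2 to 18 cm tall (1- to 4-leaf stage) received the same formulation postemergence. Greenhouse-held for 12 to 14 days, then visually rated against untreated controls on a 0 to 100 scale.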

blackgrass = assay: Test F pre-/postemergence herbicide test; assay type: in vivo, Alopecurus myosuroides
Excerpt: (§2) Seeds of plant species selected from annual blugrass (Poa annua L.), blackgrass (Alopecurus myosuroides Huds.), catchweed bedstraw (Gallium aparine L.), common chickweed (Stellaria media (L.) Vill./Cyr.), downy bromegrass (Bromus tectorum L.), green foxtail (Setaria viridis (L.) Beauv.), Italian ryegrass (Lolium multiflorum Lam.), kochia (Kochia scoparia (L.). Schrad.), lambsquarters (Chenopodium album L.), littleseed canarygrass (Phalaris minor Retz.), pigweed (Amaranthus retroflexus L.), Russian thistle (Salsola kali L. ssp. Ruthenica (Iljin) Soo), wild buckwheat (Polygonum convolvulus L.), wild mustard (Sinapis arvensis L.), wild oat (Avena fatua L.), windgrass (Apera spica-venti (L.) Beauv.), winter barley (Hordeum vulgare L.), and wheat (Triticum aestivum L.) were planted and treated preemergence with test chemicals formulated in a non-phytotoxic solvent mixture which included a surfactant.
(§3) At the same time, plants selected from these crop and weed species were treated with postemergence applications of some of the test chemicals formulated in the same manner. Plants ranged in height from 2 to 18 cm (1- to 4-leaf stage) for postemergence treatments. Treated plants and controls were maintained in a greenhouse for 12 to 14 days, after which time all species were compared to controls and visually evaluated. Plant response ratings, summarized in Table F, are based on a scale of 0 to 100 where 0 is no effect and 100 is complete control. A dash (-) response means no test result.

common chickweed = assay: Test F pre-/postemergence herbicide test; assay type: in vivo, Stellaria media
Excerpt: as §2, §3

wheat = assay: Test F pre-/postemergence herbicide test; assay type: in vivo, Triticum aestivum
Excerpt: as §2, §3

catchweed bedstraw = assay: Test F pre-/postemergence herbicide test; assay type: in vivo, Gallium aparine; settings: Preemergence
Procedure, shortened: as §1

Italian ryegrass = assay: Test F pre-/postemergence herbicide test; assay type: in vivo, Lolium multiflorum
Procedure, shortened: as §1

pigweed = assay: Test F pre-/postemergence herbicide test; assay type: in vivo, Amaranthus retroflexus
Procedure, shortened: as §1

wild oat = assay: Test F pre-/postemergence herbicide test; assay type: in vivo, Avena fatua
Excerpt: as §2, §3

lambsquarters = assay: Test F pre-/postemergence herbicide test; assay type: in vivo, Chenopodium album
Excerpt: as §2, §3

[1] = test system: corn (maize) cv. Pioneer 33G26; assay: Test G safening on corn by naphthalic anhydride seed treatment, preemergence; assay type: in vivo, Zea mays
Procedure, shortened: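 Pioneer 33G26 corn seed was pretreated with fludioxonil/metalaxyl, with or without a 1% w/w naphthalic anhydride dressing, and sown in sandy loam. Compounds were sprayed preemergence at 280 L/ha, triplicate, in a greenhouse at 28/23 °C with a 16 h photoperiod. Injury was rated visually 0–100 versus untreated controls 25 days after treatment.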

winter barley = assay: Test F pre-/postemergence herbicide test; assay type: in vivo, Hordeum vulgare
Excerpt: as §2, §3

wild mustard = assay: Test F pre-/postemergence herbicide test; assay type: in vivo, Sinapis arvensis
Procedure, shortened: as §1

kochia = assay: Test F pre-/postemergence herbicide test; assay type: in vivo, Kochia scoparia
Excerpt: as §2, §3

CCn1nc(C(C)(C)C)cc1C(=O)Nc1cccc(C(N)=O)n1 [Compound 162, 6-[[[3-(1,1-dimethylethyl)-1-ethyl-1H-pyrazol-5-yl]carbonyl]amino]-2-pyridinecarboxamide]
85: Response of corn, Without naphthalic anhydride seed treatment ([1]; 500 g a.i./ha)
40: Plant response rating (0-100), Wheat (wheat; Postemergence, 125 g ai/ha) | Plant response rating (0-100), Barley, Winter (winter barley; Postemergence, 62 g ai/ha)
25: Response of corn, With 1% naphthalic anhydride seed treatment ([1]; 125 g a.i./ha)
80: Plant response rating (0-100), Blackgrass (blackgrass; Postemergence, 125 g ai/ha) | Plant response rating (0-100), Chickweed (common chickweed; Postemergence, 125 g ai/ha) | Plant response rating (0-100), Ryegrass, Italian (Italian ryegrass; Postemergence, 125 g ai/ha) | Plant response rating (0-100), Oat, Wild (wild oat; Postemergence, 125 g ai/ha) | Plant response rating (0-100), Barley, Winter (winter barley; Postemergence, 250 g ai/ha) | Plant response rating (0-100), Barley, Winter (winter barley; Postemergence, 500 g ai/ha) | Plant response rating (0-100), Mustard, Wild (wild mustard; Postemergence, 125 g ai/ha) | Plant response rating (0-100), Mustard, Wild (wild mustard; Preemergence, 62 g ai/ha) | Plant response rating (0-100), Mustard, Wild (wild mustard; Preemergence, 125 g ai/ha)
70: Plant response rating (0-100), Canarygrass (littleseed canarygrass; Postemergence, 62 g ai/ha) | Plant response rating (0-100), Canarygrass (littleseed canarygrass; Postemergence, 125 g ai/ha) | Plant response rating (0-100), Blackgrass (blackgrass; Postemergence, 62 g ai/ha) | Plant response rating (0-100), Chickweed (common chickweed; Postemergence, 62 g ai/ha) | Plant response rating (0-100), Wheat (wheat; Postemergence, 500 g ai/ha) | Plant response rating (0-100), Galium (catchweed bedstraw; 125 g ai/ha) | Plant response rating (0-100), Ryegrass, Italian (Italian ryegrass; Postemergence, 62 g ai/ha) | Plant response rating (0-100), Pigweed (pigweed; Postemergence, 62 g ai/ha) | Plant response rating (0-100), Oat, Wild (wild oat; Postemergence, 62 g ai/ha) | Plant response rating (0-100), Barley, Winter (winter barley; Preemergence, 62 g ai/ha)
30: Response of corn, Without naphthalic anhydride seed treatment ([1]; 125 g a.i./ha)
0: Response of corn, With 1% naphthalic anhydride seed treatment ([1]; 62 g a.i./ha)
60: Plant response rating (0-100), Wheat (wheat; Preemergence, 62 g ai/ha) | Plant response rating (0-100), Galium (catchweed bedstraw; 62 g ai/ha) | Response of corn, With 1% naphthalic anhydride seed treatment ([1]; 250 g a.i./ha) | Plant response rating (0-100), Mustard, Wild (wild mustard; Postemergence, 62 g ai/ha) | Plant response rating (0-100), Kochia (kochia; Preemergence, 62 g ai/ha)
20: Plant response rating (0-100), Wheat (wheat; Postemergence, 62 g ai/ha)
15: Response of corn, Without naphthalic anhydride seed treatment ([1]; 62 g a.i./ha)
90: Plant response rating (0-100), Blackgrass (blackgrass; Preemergence, 62 g ai/ha) | Plant response rating (0-100), Ryegrass, Italian (Italian ryegrass; Postemergence, 250 g ai/ha) | Plant response rating (0-100), Pigweed (pigweed; Postemergence, 125 g ai/ha) | Plant response rating (0-100), Pigweed (pigweed; Preemergence, 62 g ai/ha)
68: Response of corn, Without naphthalic anhydride seed treatment ([1]; 250 g a.i./ha)
100: Plant response rating (0-100), Canarygrass (littleseed canarygrass; Postemergence, 250 g ai/ha) | Plant response rating (0-100), Canarygrass (littleseed canarygrass; Postemergence, 500 g ai/ha) | Plant response rating (0-100), Canarygrass (littleseed canarygrass; Preemergence, 62 g ai/ha) | Plant response rating (0-100), Canarygrass (littleseed canarygrass; Preemergence, 125 g ai/ha) | Plant response rating (0-100), Canarygrass (littleseed canarygrass; Preemergence, 250 g ai/ha) | Plant response rating (0-100), Canarygrass (littleseed canarygrass; Preemergence, 500 g ai/ha) | Plant response rating (0-100), Blackgrass (blackgrass; Postemergence, 250 g ai/ha) | Plant response rating (0-100), Blackgrass (blackgrass; Postemergence, 500 g ai/ha) | Plant response rating (0-100), Blackgrass (blackgrass; Preemergence, 125 g ai/ha) | Plant response rating (0-100), Blackgrass (blackgrass; Preemergence, 250 g ai/ha) | Plant response rating (0-100), Blackgrass (blackgrass; Preemergence, 500 g ai/ha) | Plant response rating (0-100), Chickweed (common chickweed; Postemergence, 250 g ai/ha) | Plant response rating (0-100), Chickweed (common chickweed; Postemergence, 500 g ai/ha) | Plant response rating (0-100), Chickweed (common chickweed; Preemergence, 62 g ai/ha) | Plant response rating (0-100), Chickweed (common chickweed; Preemergence, 125 g ai/ha) | Plant response rating (0-100), Chickweed (common chickweed; Preemergence, 250 g ai/ha) | Plant response rating (0-100), Chickweed (common chickweed; Preemergence, 500 g ai/ha) | Plant response rating (0-100), Wheat (wheat; Preemergence, 125 g ai/ha) | Plant response rating (0-100), Wheat (wheat; Preemergence, 250 g ai/ha) | Plant response rating (0-100), Wheat (wheat; Preemergence, 500 g ai/ha) | Plant response rating (0-100), Galium (catchweed bedstraw; 250 g ai/ha) | Plant response rating (0-100), Galium (catchweed bedstraw; 500 g ai/ha) | Plant response rating (0-100), Ryegrass, Italian (Italian ryegrass; Postemergence, 500 g ai/ha) | Plant response rating (0-100), Ryegrass, Italian (Italian ryegrass; Preemergence, 62 g ai/ha) | Plant response rating (0-100), Ryegrass, Italian (Italian ryegrass; Preemergence, 125 g ai/ha) | Plant response rating (0-100), Ryegrass, Italian (Italian ryegrass; Preemergence, 250 g ai/ha) | Plant response rating (0-100), Ryegrass, Italian (Italian ryegrass; Preemergence, 500 g ai/ha) | Plant response rating (0-100), Pigweed (pigweed; Postemergence, 250 g ai/ha) | Plant response rating (0-100), Pigweed (pigweed; Postemergence, 500 g ai/ha) | Plant response rating (0-100), Pigweed (pigweed; Preemergence, 125 g ai/ha) | Plant response rating (0-100), Pigweed (pigweed; Preemergence, 250 g ai/ha) | Plant response rating (0-100), Pigweed (pigweed; Preemergence, 500 g ai/ha) | Plant response rating (0-100), Oat, Wild (wild oat; Postemergence, 250 g ai/ha) | Plant response rating (0-100), Oat, Wild (wild oat; Postemergence, 500 g ai/ha) | Plant response rating (0-100), Oat, Wild (wild oat; Preemergence, 62 g ai/ha) | Plant response rating (0-100), Oat, Wild (wild oat; Preemergence, 125 g ai/ha) | Plant response rating (0-100), Oat, Wild (wild oat; Preemergence, 250 g ai/ha) | Plant response rating (0-100), Oat, Wild (wild oat; Preemergence, 500 g ai/ha) | Plant response rating (0-100), Lambsquarters (lambsquarters; Postemergence, 62 g ai/ha) | Plant response rating (0-100), Lambsquarters (lambsquarters; Postemergence, 125 g ai/ha) | Plant response rating (0-100), Lambsquarters (lambsquarters; Postemergence, 250 g ai/ha) | Plant response rating (0-100), Lambsquarters (lambsquarters; Postemergence, 500 g ai/ha) | Plant response rating (0-100), Lambsquarters (lambsquarters; Preemergence, 62 g ai/ha) | Plant response rating (0-100), Lambsquarters (lambsquarters; Preemergence, 125 g ai/ha) | Plant response rating (0-100), Lambsquarters (lambsquarters; Preemergence, 250 g ai/ha) | Plant response rating (0-100), Lambsquarters (lambsquarters; Preemergence, 500 g ai/ha) | Plant response rating (0-100), Barley, Winter (winter barley; Preemergence, 125 g ai/ha) | Plant response rating (0-100), Barley, Winter (winter barley; Preemergence, 250 g ai/ha) | Plant response rating (0-100), Barley, Winter (winter barley; Preemergence, 500 g ai/ha) | Plant response rating (0-100), Mustard, Wild (wild mustard; Postemergence, 250 g ai/ha) | Plant response rating (0-100), Mustard, Wild (wild mustard; Postemergence, 500 g ai/ha) | Plant response rating (0-100), Mustard, Wild (wild mustard; Preemergence, 250 g ai/ha) | Plant response rating (0-100), Mustard, Wild (wild mustard; Preemergence, 500 g ai/ha) | Plant response rating (0-100), Kochia (kochia; Postemergence, 62 g ai/ha) | Plant response rating (0-100), Kochia (kochia; Postemergence, 125 g ai/ha) | Plant response rating (0-100), Kochia (kochia; Postemergence, 250 g ai/ha) | Plant response rating (0-100), Kochia (kochia; Postemergence, 500 g ai/ha) | Plant response rating (0-100), Kochia (kochia; Preemergence, 125 g ai/ha) | Plant response rating (0-100), Kochia (kochia; Preemergence, 250 g ai/ha) | Plant response rating (0-100), Kochia (kochia; Preemergence, 500 g ai/ha)
63: Response of corn, With 1% naphthalic anhydride seed treatment ([1]; 500 g a.i./ha)
50: Plant response rating (0-100), Wheat (wheat; Postemergence, 250 g ai/ha) | Plant response rating (0-100), Barley, Winter (winter barley; Postemergence, 125 g ai/ha)

Reference: patent publication US20060069132A1, “Azolecarboxamide herbicides” (priority 2004, published 2006)
